A short description of data set [1]: Cytotoxicity against human A549 cells measured after 72 hrs by MTT assay. In kind it is functional, cell-based. As to conditions: A549, 72 h. For orientation: Tetrazolium dyes change colour on reduction, which living cells bring about.
Data set [2] in a line: Cytotoxicity against human HCT116 cells measured after 72 hrs by MTT assay. In kind it is functional, cell-based. As to conditions: HCT-116, 72 h.
A short description of data set [3]: Cytotoxicity against human Hep2 cells measured after 72 hrs by MTT assay. Format: functional, cell-based. As to conditions: HEp-2, 72 h.
A short description of data set [4]: Cytotoxicity against human MS cells measured after 72 hrs by MTT assay. Format: functional, cell-based.
The nature of data set [5]: Cytotoxicity against human TE32 cells measured after 72 hrs by MTT assay. In kind it is functional, cell-based. Conditions: RD.
The nature of data set [6]: Cytotoxicity against human HEK293 cells measured after 72 hrs by MTT assay. Format: toxicity, cell-based.
Data set [7] concerns HCT-116. The data set can be described thus: Induction of apoptosis in human HCT116 cells assessed as increase in caspase-8 activity at 5.7 uM measured up to 24 hrs. Format: functional, cell-based.
Data set [8] relates to HCT-116. The data set can be described thus: Induction of apoptosis in human HCT116 cells assessed as viable cells at 5.7 uM measured after 18 hrs by Annexin-V FITC/propidium iodide staining based flow cytometry (reference value: 92.83%). Format: functional. Conditions: HCT-116, 18 h, read-out: Activity. For orientation: In flow cytometry, cells or beads pass a laser one at a time.

The test system of data set [9] is HCT-116. The data set can be described thus: Induction of apoptosis in human HCT116 cells assessed as increase in caspase-3/7 activity at 5.7 uM measured up to 24 hrs. In kind it is functional, cell-based.
The subject of data set [10] is HCT-116. The data set can be described thus: Induction of apoptosis in human HCT116 cells assessed as increase in cck18 level at 5.7 uM measured after 18 hrs. Format: functional, cell-based.
The subject of data set [11] is HCT-116. Put plainly: Induction of apoptosis in human HCT116 cells assessed as nuclear fragmentation at 5.7 uM measured after 18 hrs by Hoechst 33258 staining based fluorescence inverted microscopic analysis. In kind it is functional, cell-based.
Data set [12] relates to HCT-116. The data set can be described thus: Induction of apoptosis in human HCT116 cells assessed as chromatin condensation at 5.7 uM measured after 18 hrs by Hoechst 33258 staining based fluorescence inverted microscopic analysis. Format: functional, cell-based.
The subject of data set [13] is HCT-116. The data set can be described thus: Cytotoxicity against human HCT116 cells at 5.7 uM by MTT assay. In kind it is functional, cell-based. Conditions: TDE = time-dependent effect.
For data set [14], the system named is HCT-116. Put plainly: Induction of apoptosis in human HCT116 cells assessed as late apoptotic cells at 5.7 uM measured after 18 hrs by Annexin-V FITC/propidium iodide staining based flow cytometry (reference value: 1.13%). Format: functional.
Data set [15] has as its system HCT-116. The data set can be described thus: Induction of apoptosis in human HCT116 cells assessed as formation of apoptotic bodies at 5.7 uM measured after 18 hrs by Hoechst 33258 staining based fluorescence inverted microscopic analysis. Format: functional, cell-based.
The subject of data set [16] is HCT-116. Put plainly: Induction of apoptosis in human HCT116 cells assessed as appearance of half moon or crescent shape nuclei at 5.7 uM measured after 18 hrs by Hoechst 33258 staining based fluorescence inverted microscopic analysis. Format: functional, cell-based.
Data set [17] concerns HCT-116. Put plainly: Induction of apoptosis in human HCT116 cells assessed as mitochondrial membrane permeability loss by measuring rhodamine 123 accumulation at 5.7 uM measured after 18 hrs by fluorescence inverted microscopic analysis. In kind it is functional, cell-based.
Data set [18] concerns HCT-116. The data set can be described thus: Induction of apoptosis in human HCT116 cells assessed as early apoptotic cells at 5.7 uM measured after 18 hrs by Annexin-V FITC/propidium iodide staining based flow cytometry (reference value: 3.92%). In kind it is functional.
Data set [19] deals with HCT-116. Put plainly: Induction of apoptosis in human HCT116 cells assessed as necrotic cells at 5.7 uM measured after 18 hrs by Annexin-V FITC/propidium iodide staining based flow cytometry (reference value: 2.12%). Format: functional.
Data set [20] in a line: Toxicity in po or ip dosed mouse administered as single dose measured after 14 days. Format: organism-based. Conditions: in vivo.
Data set [21] relates to HCT-116. Put plainly: Induction of apoptosis in human HCT116 cells assessed as mitochondrial membrane permeability loss by measuring rhodamine 123 accumulation at 6.7 uM measured after 18 hrs by fluorescence inverted microscopic analysis. Format: functional, cell-based.
Data set [22] concerns HCT-116. Put plainly: Induction of apoptosis in human HCT116 cells assessed as nuclear fragmentation at 6.7 uM measured after 18 hrs by Hoechst 33258 staining based fluorescence inverted microscopic analysis. In kind it is functional, cell-based.
In data set [23] the test system is HCT-116. The data set can be described thus: Induction of apoptosis in human HCT116 cells assessed as viable cells at 6.7 uM measured after 18 hrs by Annexin-V FITC/propidium iodide staining based flow cytometry (reference value: 92.83%). In kind it is functional. Conditions: HCT-116, 18 h, read-out: Activity.
Data set [24] deals with HCT-116. Put plainly: Induction of apoptosis in human HCT116 cells assessed as appearance of half moon or crescent shape nuclei at 6.7 uM measured after 18 hrs by Hoechst 33258 staining based fluorescence inverted microscopic analysis. Format: functional, cell-based.
Data set [25] has as its system HCT-116. The data set can be described thus: Induction of apoptosis in human HCT116 cells assessed as chromatin condensation at 6.7 uM measured after 18 hrs by Hoechst 33258 staining based fluorescence inverted microscopic analysis. Format: functional, cell-based.
Data set [26] deals with HCT-116. Put plainly: Induction of apoptosis in human HCT116 cells assessed as necrotic cells at 6.7 uM measured after 18 hrs by Annexin-V FITC/propidium iodide staining based flow cytometry (reference value: 2.12%). In kind it is functional.
The test system of data set [27] is HCT-116. Put plainly: Induction of apoptosis in human HCT116 cells assessed as late apoptotic cells at 6.7 uM measured after 18 hrs by Annexin-V FITC/propidium iodide staining based flow cytometry (reference value: 1.13%). Format: functional.
The test system of data set [28] is HCT-116. Put plainly: Induction of apoptosis in human HCT116 cells assessed as early apoptotic cells at 6.7 uM measured after 18 hrs by Annexin-V FITC/propidium iodide staining based flow cytometry (reference value: 3.92%). Format: functional.
The test system of data set [29] is HCT-116. Put plainly: Induction of apoptosis in human HCT116 cells assessed as formation of apoptotic bodies at 6.7 uM measured after 18 hrs by Hoechst 33258 staining based fluorescence inverted microscopic analysis. Format: functional, cell-based.

SMILES strings stand for the structures. pIC50: −log10 of the molar value. Active and inactive are the calls of the source. The calls are words filed in the database; no cut-off is given here.

One may read the pIC50 as the negative decadic logarithm of the IC50, by convention in mol/L. High values mean a small IC50, low ones a large IC50. Turning to `C=C(C)[C@@H]1CC[C@]2(CO)CC[C@]3(C)[C@H](CC[C@@H]4[C@@]5(C)C/C(=N\O)C(=O)C(C)(C)[C@@H]5CC[C@]43C)[C@@H]12`, the pIC50 in data set [1] is 4.32; in [2], 5.55; in data set [3], less than 4.00; in data set [4], 4.56; in data set [5], 4.45.
As a reminder, the IC50 is the concentration needed to halve the response being measured. Low readings indicate inhibition by little substance, high ones a need for much substance. As for `C=C(C)[C@@H]1CC[C@]2(C(=O)O)CC[C@]3(C)[C@H](CC[C@@H]4[C@@]5(C)Cc6c(nnc(C)[n+]6[O-])C(C)(C)[C@@H]5CC[C@]43C)[C@@H]12`, the pIC50 in [1] was less than 4.00; in data set [2], 5.85; in data set [3], 5.82; in data set [4] it was less than 4.00; in [5], less than 4.00. In addition, in data set [6], the IC50 at 72 h amounted to 2.1 µM.
Consider `C=C(C)[C@@H]1CC[C@]2(COC(C)=O)CC[C@]3(C)[C@H](CC[C@@H]4[C@@]5(C)C(=O)c6nc(C)oc6C(C)(C)[C@@H]5CC[C@]43C)[C@@H]12`, for which the pIC50 was 4.62 in [1]; 4.48 in [2]; 4.40 in data set [3]; 4.32 in data set [4]; 4.65 in data set [5].
For `C=C(C)[C@@H]1CC[C@]2(COC(C)=O)CC[C@]3(C)[C@H](CC[C@@H]4[C@@]5(C)c6c(noc6C)C(=O)C(C)(C)[C@@H]5CC[C@]43C)[C@@H]12`, in that order: 5.11, 4.72, 4.66, 4.85 and 4.83.
Taken in the same sequence, the figures for `C=C(C)[C@@H]1CC[C@]2(COC(C)=O)CC[C@]3(C)[C@H](CC[C@@H]4[C@@]5(C)Cc6nn(C(C)=O)nc6C(C)(C)[C@@H]5CC[C@]43C)[C@@H]12` were less than 4.00, 4.65, 4.75, less than 4.00 and less than 4.00.
As a reminder, the LD50 is the dose at which mortality reaches 50%. As for `C=C(C)[C@@H]1CC[C@]2(CO)CC[C@]3(C)[C@H](CC[C@@H]4[C@@]5(C)Cc6nn(C(C)=O)nc6C(C)(C)[C@@H]5CC[C@]43C)[C@@H]12`, the outcome with HCT-116 [7], with HCT-116 [9], with HCT-116 [10], in the data set with HCT-116 [11], in the data set on HCT-116 [12] and in the data set with HCT-116 [15] was Active. The outcome in the data set with HCT-116 [16] and in the data set on HCT-116 [17] was Active. Moreover, the viability at 5.7 µM in the data set with HCT-116 [8] was 80.9%. Moreover, the pIC50 in data set [1] was 4.68; in data set [2] it was 5.25; in data set [3], 5.13; in data set [4], 5.64; in data set [5] it was 5.35. The Activity entry was “Tde” in the data set on HCT-116 [13], 1.04% with HCT-116 [14], 14.87% in the data set on HCT-116 [18] and 3.14% with HCT-116 [19]. Moreover, the IC50 at 72 h in data set [6] amounted to 12.7 µM. In [20], this molecule displayed an LD50 at 336 h of more than 600 mg/kg.
Turning to `C=C(C)[C@@H]1CC[C@]2(COC(C)=O)CC[C@]3(C)[C@H](CC[C@@H]4[C@@]5(C)C=C(NC(C)=O)C(=O)C(C)(C)[C@@H]5CC[C@]43C)[C@@H]12`, the pIC50 was 4.43 in [1]; 4.08 in data set [2]; 4.66 in [3]; less than 4.00 in data set [4]; 4.47 in data set [5].
Taken in the same sequence, the figures for `C=C(C)[C@@H]1CC[C@]2(CO)CC[C@]3(C)[C@H](CC[C@@H]4[C@@]5(C)C(=O)c6nc(C)oc6C(C)(C)[C@@H]5CC[C@]43C)[C@@H]12` were 4.36, 4.80, 4.71, 4.57 and less than 4.00.
For `C=C(C)[C@@H]1CC[C@]2(CO)CC[C@]3(C)[C@H](CC[C@@H]4[C@@]5(C)CCC(=O)C(C)(C)[C@@H]5CC[C@]43C)[C@@H]12` [BETULONE], in that order: 4.48, 4.47, 4.65, 4.74 and 4.88.
Taken in the same sequence, the figures for `C=C(C)[C@@H]1CC[C@]2(CO)CC[C@]3(C)[C@H](CC[C@@H]4[C@@]5(C)C=C(NC(C)=O)C(=O)C(C)(C)[C@@H]5CC[C@]43C)[C@@H]12` were less than 4.00, 5.29, 4.98, less than 4.00 and less than 4.00.
Take `C=C(C)[C@@H]1CC[C@]2(CO)CC[C@]3(C)[C@H](CC[C@@H]4[C@@]5(C)Cc6c(nnc(C)[n+]6[O-])C(C)(C)[C@@H]5CC[C@]43C)[C@@H]12`: the pIC50 was less than 4.00 in [1]; 4.84 in data set [2]; 5.35 in [3]; 4.79 in [4]; less than 4.00 in data set [5].
Turning to `C=C(C)[C@@H]1CC[C@]2(CO)CC[C@]3(C)[C@H](CC[C@@H]4[C@@]5(C)c6c(noc6C)C(=O)C(C)(C)[C@@H]5CC[C@]43C)[C@@H]12`, the pIC50 is less than 4.00 in [1]; 4.53 in data set [2]; 4.51 in [3]; 4.61 in data set [4]; less than 4.00 in data set [5].
In the case of `CC[C@@]1(O)C(=O)OCc2c1cc1n(c2=O)Cc2cc3ccccc3nc2-1` [CAMPTOTHECIN], the result with HCT-116 [21], in the data set on HCT-116 [22], in the data set with HCT-116 [24], in the data set on HCT-116 [25] and in the data set with HCT-116 [29] was Active. Moreover, the negative logarithm of the IC50 (pIC50) in data set [1] was 5.23; in data set [2], 5.17; in data set [3], 5.52; in data set [4], 5.74; in data set [5] it was 5.91. For the same molecule, the viability at 6.7 µM with HCT-116 [23] was found to be 80.9%. Moreover, the Activity with HCT-116 [26] was 5.07%; in the data set on HCT-116 [27], 1.6%; in the data set with HCT-116 [28], 12.44%. This molecule also displayed an IC50 at 72 h in data set [6] of 0.89 µM.
As for `C=C(C)[C@@H]1CC[C@]2(C=O)CC[C@]3(C)[C@H](CC[C@@H]4[C@@]5(C)Cc6nn(C(C)=O)nc6C(C)(C)[C@@H]5CC[C@]43C)[C@@H]12`, the pIC50 in data set [1] is 4.27; in [2], less than 4.00; in data set [3], less than 4.00; in data set [4] it was less than 4.00; in data set [5], 4.34.
